Source: EP0624315B1, “Diaryl(pyridinio and isoquinolinio) boron fungicidal agents” (AMERICAN CYANAMID COMPANY, priority 1993, dated 1994)

Tests used:
Pyricularia oryzae = assay type: in vivo; conditions: 200 ppm, host plants sprayed, dried, then inoculated
[1] = system: Puccinia recondita f. sp. tritici; assay: In vivo fungicidal evaluation, Wheat Leaf Rust; conditions: 200 ppm, host plants sprayed, dried, then inoculated; also: ranges in brackets are in %
[2] = system: Diabrotica undecimpunctata howardi, 3rd instar southern corn rootworm; assay: Insecticide evaluation, southern corn rootworm soil test; assay type: in vivo; parameters: key: 0 = no effect; 1 = 10-25% kill; 2 = 26-35% kill; 3 = 36-45% kill; 4 = 46-55% kill; 5 = 56-65% kill; 6 = 66-75% kill; 7 = 76-85% kill; 8 = 86-99% kill; 9 = 100% kill; - = No evaluation; conditions: 50 kg/ha (1.25 mg active ingredient per jar), 6 days
Experimental: (§1) The following tests show the efficacy of the compounds as insecticides and acaricides. The evaluations are conducted with solutions of test compounds dissolved or dispersed in 50/50 acetone/water mixtures. The test compound is technical material dissolved or dispersed in said acetone/water mixtures in sufficient amounts to provide the concentrations set forth in Table I below. All concentrations reported herein are in terms of active ingredient. All tests are conducted in a laboratory maintained at about 27 °C. The rating system employed is as follows:
One cc of fine talc is placed in a 30 mL wide-mouth screw-top glass jar. One mL of the appropriate acetone test solution is pipetted onto the talc so as to provide 1.25 mg of active ingredient per jar. The jars are set under a gentle air flow until the acetone is evaporated. The dried talc is loosened, 1 cc of millet seed is added to serve as food for the insects and 25 mL of moist soil is added to each jar. The jars are capped and the contents thoroughly mixed on a Vortex Mixer. Following this, ten 3rd instar rootworms are added to each jar and the jars are loosely capped to allow air exchange for the larvae. The treatments are held for 6 days before mortality counts are made. Missing larvae are presumed dead, since they decompose rapidly and can not be found. The concentration used in this test corresponds to approximately 50 kg/ha.

Botrytis cinerea = assay: In vivo fungicidal evaluation, Pepper Botrytis; conditions: 200 ppm, host plants sprayed, dried, then inoculated; also: ranges in brackets are in %
Cercospora beticola = assay: In vivo fungicidal evaluation, Sugar Beet Cercospora; conditions: 200 ppm, host plants sprayed, dried, then inoculated; also: ranges in brackets are in %
Plasmopara viticola = assay: In vivo fungicidal evaluation, Grape Downy Mildew; conditions: 200 ppm, host plants sprayed, dried, then inoculated; also: ranges in brackets are in %
Alternaria solani = assay: In vivo fungicidal evaluation, Tomato Early Blight; conditions: 200 ppm, host plants sprayed, dried, then inoculated; also: ranges in brackets are in %
Venturia inaequalis = assay: In vivo fungicidal evaluation, Apple Scab; conditions: 200 ppm, host plants sprayed, dried, then inoculated; also: ranges in brackets are in %
[3] = system: Erysiphe graminis f. sp. tritici; assay: In vivo fungicidal evaluation, Wheat Powdery Mildew; conditions: 200 ppm, host plants sprayed, dried, then inoculated; also: ranges in brackets are in %
[4] = system: Pseudocercosporella herpotrichoides (Psdche); assay: In vitro fungicidal evaluation, mycelial growth inhibition in nutrient broth; assay type: cell-based; conditions: 25 ppm, 3-4 days at 21°C, rated visually; also: ranges in brackets are in %
Experimental: (§2) Test compounds are dissolved or suspended in acetone and dispersed into cell well plates containing a suspension of ground fungal mycelia in a nutrient broth. Assay plates are incubated for 3-4 days at 21°C. Growth inhibition is measured visually and is rated using the following scale:
(§3) Untreated controls, solvent blanks and reference standards are included in each test.
(§4) Assay fungi include the plant pathogens, Pythium ultimum (Pythul); Rhizoctonia solani (Rhizso); Fusarium oxysporum f. sp. cucumerinum (Fusoxc); and Pseudocercosporella herpotrichoides (Psdche).
(§5) When more than one test is run, the data are averaged. The compouds evaluated are reported by compound number given in Example 5.

Pythium ultimum (Pythul) = assay: as above; assay type: cell-based; conditions: 25 ppm, 3-4 days at 21°C, rated visually; also: ranges in brackets are in %
Experimental: as §2, §3, §4, §5

[5] = system: Fusarium oxysporum f. sp. cucumerinum (Fusoxc); assay: as above; assay type: cell-based; conditions: 25 ppm, 3-4 days at 21°C, rated visually; also: ranges in brackets are in %
Experimental: as §2, §3, §4, §5

[6] = system: Rhizoctonia solani (Rhizso); assay: as above; assay type: cell-based; conditions: 25 ppm, 3-4 days at 21°C, rated visually; also: ranges in brackets are in %
Experimental: as §2, §3, §4, §5

[7] = system: Tetranychus urticae (OP-resistant strain), 2-spotted spider mite; assay: Acaricide evaluation, 2-spotted spider mite plant dip; assay type: in vivo; conditions: 300 ppm, 2 days, adult kill
Experimental: as §1
Sieva lima bean plants with primary leaves expaned to 7 to 8 cm are selected and cut back to one plant per pot. A small piece is cut from a leaf taken from the main colony and placed on each leaf of the test plants. This is done about 2 hours before treatment to allow the mites to move over to the test plant and to lay eggs. The size of the cut piece is varied to obtain about 100 mites per leaf. At the time of the treatment, the piece of leaf used to transfer the mites is removed and discarded. The mite-infested plants are dipped in the test formulation for 3 seconds with agitation and set in the hood to dry. Plants are kept for 2 days before estimates of adult kill are made.

[8] = system: Spodoptera eridania 3rd instar larvae, southern army-worm; assay: Insecticide evaluation, southern armyworm leaf dip; assay type: in vivo; conditions: 5 days
Experimental: as §1
A sieva lima bean leaf expanded to 7 to 8 cm in length is dipped in the test suspension with agitation for 3 seconds and placed in a hood to dry. The leaf is then placed in a 100x10 mm petri dish containing a damp filter paper on the bottom and 10 3rd instar caterpillars. The dish is maintained for 5 days before observations are made of mortality, reduced feeding or any interference with normal moulting.

[9] = system: Heliothis virenscens, 3rd instar tobacco budworm; assay: Insecticide evaluation, tobacco budworm cotton cotyledon dip; assay type: in vivo; conditions: 300 ppm, 3 days
Experimental: as §1
Cotton cotyledons are dipped in the test formulation and allowed to dry in a hood. When dry, each is cut into quarters and ten sections placed individually in 30 mL plastic medicine cups containing a 5 to 7 mm long piece of damp dental wick. One 3rd instar caterpillar is added to each cup and a cardboard lid placed on the cup. Treatments are maintained for 3 days before mortality counts and estimates of reduction in feeding damage are made.

Substance | RB (Rice Blast) disease control rating (Pyricularia oryzae) | WLR (Wheat Leaf Rust) disease control rating [1] | Southern Corn Rootworm kill rating [2] | PB (Pepper Botrytis) disease control rating (Botrytis cinerea) | SBC (Sugar Beet Cercospora) disease control rating (Cercospora beticola) | GDM (Grape Downy Mildew) disease control rating (Plasmopara viticola) | TEB (Tomato Early Blight) disease control rating (Alternaria solani) | AS (Apple Scab) disease control rating (Venturia inaequalis) | WPM (Wheat Powdery Mildew) disease control rating [3] | PSDCHE growth inhibition rating [4] | PHTHUL growth inhibition rating (Pythium ultimum (Pythul)) | FUSOXC growth inhibition rating [5] | RHIZSO growth inhibition rating [6] | OP. Res. Mites kill rating [7] | Southern Armyworm kill rating ([8]; 1000 ppm) | Tobacco Budworm Larvae kill rating [9] | Southern Armyworm kill rating ([8]; 300 ppm)
(4-Bromoisoquinolinio)bis(p-fluorophenyl)methylboron [Compound 14] | 8 (96 - 99) | 0 (0) | 5 (5 = 56-65% kill) | 9 (100) | 7 (90 - 95) | 7 (90 - 95) | 0 (0) | 8 (96 - 99) | 0 (0) | 9 (100) | 9 (100) | 9 (100) | 9 (100) | 9 (9 = 100% kill) | 9 (9 = 100% kill) | – | –
(4-Isopropylpyridinio)methyldiphenylboron [Compound 1] | 7 (90 - 95) | 8 (96 - 99) | 0 | 7 (90 - 95) | 0 (0) | 9 (100) | 7 (90 - 95) | 9 (100) | 8 (96 - 99) | 9 (100) | 7 (90 - 99) | 9 (100) | 9 (100) | 8 (8 = 86-99% kill) | – | 8 (8 = 86-99% kill) | 8 (8 = 86-99% kill)
(Isoquinolinio)methyldiphenylboron [Compound 6] | 6 (75 - 89) | 9 (100) | 9 (9 = 100% kill) | 0 (0) | 0 (0) | 9 (100) | 0 (0) | 9 (100) | 8 (96 - 99) | 9 (100) | 9 (100) | 9 (100) | 7 (90 - 99) | 8 (8 = 86-99% kill) | – | 8 (8 = 86-99% kill) | 9 (9 = 100% kill)
Methyl(3-methylpyridinio)diphenylboron [Compound 2] | 7 (90 - 95) | 8 (96 - 99) | 9 (9 = 100% kill) | 0 (0) | 0 (0) | 9 (100) | 0 (0) | 9 (100) | 8 (96 - 99) | 9 (100) | 9 (100) | 9 (100) | 9 (100) | 9 (9 = 100% kill) | 9 (9 = 100% kill) | – | –
